Reference: patent US11839683B2, “Method of rapidly achieving therapeutic concentrations of triptans for treatment of migraines” (EMERGEX USA CORPORATION, priority 2016, dated 2023)
Like-named read-outs stand apart in the source and are kept apart here.

Legend:
[1] = In vitro dissolution, USP Paddle over Disk apparatus (USP apparatus 5); type: physicochemical; conditions: M207 1.9 mg patch
Method: In vitro dissolution of […] 1.9 mg patches were evaluated using standard USP Paddle over Disk apparatus (USP apparatus 5) with Distek […] 6-position dissolution tester. The paddle height was set at 25 mm above patch and rotated at 50 RPM. An USP vessel was filled with degassed 500 mL PBS dissolution medium and the temperature was controlled at 32° C. A full patch assembly containing the coated patch adhered to the center of an inner ring and then attached to an outer ring was inserted along the vessel wall into the vessel with the coated microprojections facing upright. […] […] patches stored at room temperature and at 40° C./75% relative humidity for 10 months were evaluated.

clinical = conditions: both, human, in vivo; for AUC(0-inf): AUCinf
Method: The final treatment administered was 3.8 mg on a 10 cm^2 patch using an applicator with 0.52 Joule of application energy in the intracutaneous microneedle system described herein. The products tested were:
This was a single-center, open-label, randomized five-way crossover study (Part 1) followed by a sequential study of two additional treatments (Parts 2 and 3). After obtaining informed consent and establishing eligibility, each subject received each of the seven study treatments once, followed by in-clinic monitoring and extensive blood sample collection for pharmacokinetic analysis. […] Plasma samples from the initial dosing days were sent to the analytical laboratory for analysis, and tolerability for each of the dose levels was summarized. […] During Part 3, subjects received a single 3.8 mg patch (applied with a 0.52 J applicator) and also completed identical procedures to the previous dosing days. After completion of the seven dosing days, subjects were assessed one final time and dismissed from the study.
Twenty subjects were enrolled in the study, 10 males and 10 females. The subjects mean age was 29 years±3.5 years with a mean BMI of 24.4±3.5.
PK parameters were summarized by treatment group using descriptive statistics (arithmetic means, standard deviations, coefficients of variation, sample size, minimum, maximum, and median).
Graphs of apparent dose linearity and proportionality of PK parameters (AUCt, AUCinf and Cmax) were compiled.

[2] = 10 mg oral, Seaber1997, cited from earlier work
migraine = conditions: cited from earlier work
[3] = NASAL 2.5 mg, 1 hour, Charlesworth et al, 2003
[4] = NASAL 2.5 mg, 2 hour, Charlesworth et al, 2003
[5] = NASAL 2.5 mg, 4 hour, Charlesworth et al, 2003
[6] = ODT 2.5 mg, 1 hour, Dowson et al, 2002
[7] = ODT 2.5 mg, 2 hour, Dowson et al, 2002
[8] = TABLET 2.5 mg, 1 hour, Pascual et al, 2000
[9] = TABLET 2.5 mg, 1 hour, Steiner et al, 2003
[10] = TABLET 2.5 mg, 2 hour, Pascual et al, 2000
[11] = TABLET 2.5 mg, 2 hour, Steiner et al, 2003
[12] = TABLET 5 mg, 1 hour, Dahlof et al 1998
[13] = TABLET 5 mg, 1 hour, Geraud et al, 2000
[14] = TABLET 5 mg, 2 hour, Dahlof et al 1998
[15] = TABLET 5 mg, 2 hour, Geraud et al, 2000
[16] = TABLET 5 mg, 4 hour, Geraud et al, 2000
[17] = TABLET 10 mg, 1 hour, Dahlof et al 1998
[18] = TABLET 10 mg, 2 hour, Dahlof et al 1998

In the case of `CN(C)CCc1c[nH]c2ccc(C[C@H]3COC(=O)N3)cc12` [Zolmitriptan, zolmitriptan], the “Percent Dissolution (% D)” value ([1]; E-beam irradiated, stored at 40° C./75% RH for 10 months, 0 s) is reported as 0%, the “Percent Dissolution (% D)” value ([1]; E-beam irradiated, stored at 40° C./75% RH for 10 months, 20 s) is reported as 5-10% and the “Percent Dissolution (% D)” value ([1]; E-beam irradiated, stored at 40° C./75% RH for 10 months, 40 s) is reported as 10-50%. For the same compound, the “Percent Dissolution (% D)” value ([1]; E-beam irradiated, stored at 40° C./75% RH for 10 months, 60 s) was 50-100%, the “Percent Dissolution (% D)” value ([1]; E-beam irradiated, stored at 40° C./75% RH for 10 months, 80 s) was 100% and the “Percent Dissolution (% D)” value ([1]; E-beam irradiated, stored at 40° C./75% RH for 10 months, 100 s) was 100%. For the same compound, the “Percent Dissolution (% D)” value ([1]; E-beam irradiated, stored at RT for 10 months, 0 s) was 0%, the “Percent Dissolution (% D)” value ([1]; E-beam irradiated, stored at RT for 10 months, 20 s) was 60-80% and the “Percent Dissolution (% D)” value ([1]; E-beam irradiated, stored at RT for 10 months, 40 s) was 90-100%. The “Percent Dissolution (% D)” value ([1]; E-beam irradiated, stored at RT for 10 months, 60 s) was 100%, the “Percent Dissolution (% D)” value ([1]; E-beam irradiated, stored at RT for 10 months, 80 s) was 100% and the “Percent Dissolution (% D)” value ([1]; E-beam irradiated, stored at RT for 10 months, 100 s) was 100%. The “Percent Dissolution (% D)” value ([1]; non-irradiated, stored at 40° C./75% RH for 10 months, 0 s) was 0%, the “Percent Dissolution (% D)” value ([1]; non-irradiated, stored at 40° C./75% RH for 10 months, 20 s) was 0% and the “Percent Dissolution (% D)” value ([1]; non-irradiated, stored at 40° C./75% RH for 10 months, 40 s) was 10-40%. The “Percent Dissolution (% D)” value ([1]; non-irradiated, stored at 40° C./75% RH for 10 months, 60 s) was 90-100%, the “Percent Dissolution (% D)” value ([1]; non-irradiated, stored at 40° C./75% RH for 10 months, 80 s) was 100% and the “Percent Dissolution (% D)” value ([1]; non-irradiated, stored at 40° C./75% RH for 10 months, 100 s) was 100%. For the same compound, the “Tmax, Mean (SD)” value (clinical) was 17.10 (11.82), the Tmax, Median (clinical) was 17.5 min and the “t1/2, Mean (SD)” value (clinical) was 91.70 (18.7). It also gave a t1/2, Median (clinical) of 96.2 min, an AUC(0-t) (clinical; 0.48 mg, AUC2 hrs, Mean (SD)) of 2.11 ng·h/mL and an AUC(0-t) (clinical; 0.48 mg, AUC2 hrs, Median) of 2.11 ng·h/mL. The AUC(0-inf) (clinical; 0.48 mg, Mean (SD)) was 3.81 ng·h/mL, the AUC(0-inf) (clinical; 0.48 mg, Median) was 3.78 ng·h/mL and the AUC(0-t) (clinical; 0.48 mg, AUCt, Mean (SD)) was 2.81 ng·h/mL. For the same compound, the AUC(0-t) (clinical; 0.48 mg, AUCt, Median) was 2.78 ng·h/mL, the Cmax (clinical; 0.48 mg, Mean (SD)) was 1.84 ng/mL and the Cmax (clinical; 0.48 mg, Median) was 1.8 ng/mL. For the same compound, the Tmax (clinical; 0.48 mg, Tmax, Mean (SD)) was 17.3 min, the Tmax (clinical; 0.48 mg, Tmax, Median) was 20 min and the half-life (clinical; 0.48 mg, t1/2, Mean (SD)) was 69.1 min. The half-life (clinical; 0.48 mg, t1/2, Median) was 64.6 min, the AUCinf, Median (clinical; 1.9 mg) was 14.5 ng·h/mL and the AUC(0-t) (clinical; 1.9 mg, AUC2 hrs, Mean (SD)) was 7.36 ng·h/mL. It also gave an AUC(0-t) (clinical; 1.9 mg, AUC2 hrs, Median) of 7.75 ng·h/mL, an AUC(0-inf) (clinical; 1.9 mg, Mean (SD)) of 14.1 ng·h/mL and an AUC(0-t) (clinical; 1.9 mg, AUCt, Mean (SD)) of 12.3 ng·h/mL. It also gave an AUC(0-t) (clinical; 1.9 mg, AUCt, Median) of 12.7 ng·h/mL, a Cmax (clinical; 1.9 mg, Mean (SD)) of 6.76 ng/mL and a Cmax (clinical; 1.9 mg, Median) of 6.4 ng/mL. It also gave a Tmax (clinical; 1.9 mg, Tmax, Mean (SD)) of 17.9 min, a Tmax (clinical; 1.9 mg, Tmax, Median) of 20 min and a half-life (clinical; 1.9 mg, t1/2, Mean (SD)) of 87.8 min. The half-life (clinical; 1.9 mg, t1/2, Median) was 84.7 min, the “t1/2, Mean (SD)” value (clinical; 3.8 mg) was 91.00 (18.80) and the AUC(0-t) (clinical; 3.8 mg, AUC2 hrs, Mean (SD)) was 19.3 ng·h/mL. The AUC(0-t) (clinical; 3.8 mg, AUC2 hrs, Median) was 18.4 ng·h/mL, the AUC(0-inf) (clinical; 3.8 mg, Mean (SD)) was 33.8 ng·h/mL and the AUC(0-inf) (clinical; 3.8 mg, Median) was 32.2 ng·h/mL. The AUC(0-t) (clinical; 3.8 mg, AUCt, Mean (SD)) was 31.6 ng·h/mL, the AUC(0-t) (clinical; 3.8 mg, AUCt, Median) was 29.9 ng·h/mL and the Cmax (clinical; 3.8 mg, Mean (SD)) was 22.6 ng/mL. For the same compound, the Cmax (clinical; 3.8 mg, Median) was 19.9 ng/mL, the Tmax (clinical; 3.8 mg, Tmax, Mean (SD)) was 16.1 min and the Tmax (clinical; 3.8 mg, Tmax, Median) was 15 min. It also gave a half-life (clinical; 3.8 mg, t1/2, Median) of 87.2 min, a Tmax (clinical; Tmax, Mean (SD)) of 18.4 min and a Tmax (clinical; Tmax, Median) of 20 min. For the same compound, the Tmax (clinical; mean Tmax) was 16.1 to 18.4 min, the Cmax (clinical; po, 2.5 mg, Median) was 3.7 ng/mL and the half-life (clinical; t1/2, Mean (SD)) was 77.2 min. The half-life (clinical; t1/2, Median) was 82 min, the AUC0-last ([2]; (F)) was 108.6 ng·h/mL and the Cmax ([2]; (F)) was 20.9 ng/mL. For the same compound, the AUC0-last ([2]; (M)) was 84.4 ng·h/mL, the Cmax ([2]; (M)) was 16.6 ng/mL and the “% PAIN FREE” value (migraine; [3]) was 10.6%. The “% PAIN RELIEF” value (migraine; [3]) was 40.2%, the “% PAIN FREE” value (migraine; [4]) was 21.0% and the “% PAIN RELIEF” value (migraine; [4]) was 55.4%. The “% PAIN FREE” value (migraine; [5]) was 38.4%, the “% PAIN RELIEF” value (migraine; [5]) was 63.4% and the “% PAIN FREE” value (migraine; [6]) was 7.8%. For the same compound, the “% PAIN RELIEF” value (migraine; [6]) was 45.0%, the “% PAIN FREE” value (migraine; [7]) was 27.0% and the “% PAIN RELIEF” value (migraine; [7]) was 63.0%. For the same compound, the “% PAIN FREE” value (migraine; ODT 2.5 mg, 4 hour, Dowson et al, 2002) was 37.0%, the “% PAIN FREE” value (migraine; [8]) was 10.4% and the “% PAIN RELIEF” value (migraine; [8]) was 35.3%. The “% PAIN FREE” value (migraine; [9]) was 5.7%, the “% PAIN RELIEF” value (migraine; [9]) was 25.1% and the “% PAIN FREE” value (migraine; [10]) was 35.6%. The “% PAIN RELIEF” value (migraine; [10]) was 66.8%, the “% PAIN FREE” value (migraine; [11]) was 26.3% and the “% PAIN RELIEF” value (migraine; [11]) was 59.6%. For the same compound, the “% PAIN RELIEF” value (migraine; TABLET 2.5 mg, 4 hour, Steiner et al, 2003) was 25.1%, the “% PAIN FREE” value (migraine; [12]) was 10.0% and the “% PAIN RELIEF” value (migraine; [12]) was 44.0%. For the same compound, the “% PAIN FREE” value (migraine; [13]) was 7.8%, the “% PAIN RELIEF” value (migraine; [13]) was 34.2% and the “% PAIN FREE” value (migraine; [14]) was 39.0%. The “% PAIN RELIEF” value (migraine; [14]) was 66.0%, the “% PAIN FREE” value (migraine; [15]) was 29.3% and the “% PAIN RELIEF” value (migraine; [15]) was 58.7%. The “% PAIN FREE” value (migraine; [16]) was 54.6%, the “% PAIN RELIEF” value (migraine; [16]) was 80.5% and the “% PAIN FREE” value (migraine; [17]) was 9.0%. For the same compound, the “% PAIN RELIEF” value (migraine; [17]) was 40.0%, the “% PAIN FREE” value (migraine; [18]) was 39.0% and the “% PAIN RELIEF” value (migraine; [18]) was 71.0%. The “pain freedom at 2 hours” value (migraine; lowest oral dose) was 29% and the “pain relief at 2 hours” value (migraine; lowest oral dose) was 62%.
